Consider three compounds from paper PMC6218659, “Structures of DPAGT1 Explain Glycosylation Disease Mechanisms and Advance TB Antibiotic Design” (Cell, 2018).

≈ marks a conversion by molar mass, not a printed value. Read-outs that look alike come from different tables or passages of the source. Bounds are passed on as bounds.

One data set deals with T1, DPAGT1 (Homo sapiens, UniProt Q9H3H5).
T1 construct: H. sapiens DPAGT1 (1-408, N-terminal 6 x HIS tag, TEV cleavage site); 6xHis purification tag with TEV site (N, cleaved yes); made in house; host or cells: Spodoptera frugiperda Sf9 insect cells (baculovirus)
T1 sequence (Q9H3H5 1-408): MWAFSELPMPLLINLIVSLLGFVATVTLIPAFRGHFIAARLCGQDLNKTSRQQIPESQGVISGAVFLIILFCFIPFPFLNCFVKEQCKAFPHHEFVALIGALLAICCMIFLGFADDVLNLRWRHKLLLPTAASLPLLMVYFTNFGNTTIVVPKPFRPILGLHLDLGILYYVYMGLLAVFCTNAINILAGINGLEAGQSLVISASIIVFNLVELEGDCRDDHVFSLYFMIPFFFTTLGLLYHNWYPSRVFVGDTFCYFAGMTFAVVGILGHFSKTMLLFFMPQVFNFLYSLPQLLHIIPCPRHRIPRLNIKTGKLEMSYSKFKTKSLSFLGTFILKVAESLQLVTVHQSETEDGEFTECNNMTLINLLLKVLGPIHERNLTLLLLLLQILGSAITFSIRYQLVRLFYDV
Briefly: Radiolabeled substrate enzyme activity assay. Type of data set: biochemical, H. sapiens. As to conditions: for effect on DPAGT1 catalytic activity: purified DPAGT1 enzyme, Figure 6F. As for the experimental part: 2 μl of 2 μM DPAGT1 WT or mutant proteins in GFB buffer supplemented with 5mM extra MgCl2, 1% OGNG/CHS/cardiolipin and dolichyl monophosphate was combined with 2 μl of UDP-N-acetyl [1-14C] […] The reaction was terminated by the addition of 6 μl of 100% methanol and immediately transferred onto ice. 1 μl of sample was spotted onto a silica coated TLC plate in triplicate and run with a mobile phase consisting of chloroform, methanol, and water at a 65:25:4 ratio respectively. After the run, the TLC plate was dried thoroughly, wrapped in cling film, incubated with a phosphor imaging substrate for 4 days, then phosphor imaged using a Biorad. The pixel density of the spots corresponding to the hydrophobic product was divided by combined pixel density of the product and the substrate and multiplied by the known concentration of substrate added to ascertain the amount of product formed.

A further data set has as its system B. subtilis EC1524. Briefly: Micro-broth dilution and drop plate antimicrobial susceptibility test. Type of data set: cell-based, Bacillus subtilis. As for the experimental part: (§1) In a sterile 96-well plate, serial dilutions were made with the test substance to final volume of 50 μl. Inoculum was then prepared in Mueller-Hinton broth to 0.5 McFarland and diluted before adding 50 μl to the well to make ∼1x10^5 CFU/ml. The culture plate was incubated at 35 °C for 20-24 hrs. A positive growth control and sterility wells were also prepared along with the culture wells. Absorbance at OD600 was taken using BMG Labtech SPECTROstar Omega spectrophotometer. MIC is determined by the lowest concentration without growth. IC50 is determined from plotting a dose-response curve, see Data Analysis below. To determine the MBC, using a multi-channel pipette, 1 μl of culture broth was taken from the same 96-well microdilution growth plate and carefully inoculated on surface of MH agar plate. The plate is then incubated for additional 20 hrs. at 35 °C. The MBC value is the lowest concentration without observed growth on the agar.
Background: Broth dilution looks for growth in wells or tubes with falling amounts of substance.

Another data set deals with HEK293 cells. In words: Cell proliferation assay (MTS). Type of data set: cell-based, human. As for the experimental part:
(§2) In sterile 96-well plate, each well was seeded with ∼1x10^5 cells. The cells are then grown confluent overnight in 100 μl DMEM with 10% FBS. The medium is replenished with DMEM with 2% FBS and added vehicle control or test substance the next day. For test substance in methanol, stock was added to 25 μl of DMEM with 2% FBS or PBS and placed in the laminar flow hood to let the methanol evaporate (about 1-3 hrs). Once the methanol has evaporated, DMEM with 2% FBS was added to final volume of 100 μl of desired test concentration. […] Cells are grown for additional 24 hrs. The cell viability was determined by using Promega CellTiter 96^© AQueous One Solution Cell Proliferation Assay (3-(4,5-dimethylthiazol-2-yl)-5-(3-carboxymethoxyphenyl)-2-(4-sulfophenyl)-2H-tetrazolium, inner salt; MTS) System following the manufacture protocol.

For another data set, the system named is Raji cells. Briefly: Cell proliferation assay (MTS). The note with it: 24 hrs. Type of data set: cell-based, human. As for the experimental part:
as §2

The next data set concerns HepG2 cells. In words: Cell proliferation assay (MTS). Type of data set: cell-based, human. As for the experimental part: as §2
A further data set deals with Mtb H37Rv ATCC27294. Briefly: Minimum inhibitory concentrations testing against Mtb. The note with it: for MIC: Mycobacterium tuberculosis, 168 h. In kind it is cell-based, Mycobacterium tuberculosis.
Another data set deals with B. cereus ATCC11778. Briefly: Micro-broth dilution and drop plate antimicrobial susceptibility test. In kind it is cell-based, Bacillus cereus. How it is done:
as §1

In a further data set the test system is E. coli ATCC25922. The data set is described as above. Type of data set: cell-based. As to conditions: Escherichia coli. As for the experimental part: as §1
Another data set deals with P. aeruginosa ATCC27853. The data set is described as above. In kind it is cell-based. As to conditions: Pseudomonas aeruginosa. How it is done: as §1
For a further data set, the system named is S. aureus ATCC29219. The description is as above. In kind it is cell-based. As to conditions: Staphylococcus aureus. As for the experimental part: as §1
Data set [1] has as its system Mtb-infected J774A.1 macrophages. Briefly: Efficacy against Mtb growing in infected macrophages. The note with it: J774A.1 macrophages treated 3 or 7 days.
The mark [2] stands for this setting: minimal lethal dose / MIC, 800 μg mL-1 used for >400.
The mark [3] stands for this setting: MTS cell proliferation assay, 24 hrs, highest concentration 400 µg mL-1.
[4] abbreviates: serial 2-fold dilutions (Table S6).

By IC50 is commonly meant the concentration that gives 50% inhibition. The low end stands for higher potency, the high end for lower potency. As a reminder, the MBC is the smallest concentration meeting the test's criterion for killing. Lower therefore signals more potent killing.

Regarding `CCCCCCCC(=O)N[C@H]1[C@H](O[C@H]2O[C@H](CO)[C@@H](O)[C@H](O)[C@H]2NC(C)=O)O[C@H](C[C@@H](O)[C@H]2O[C@@H](n3ccc(=O)[nH]c3=O)[C@H](O)[C@@H]2O)[C@H](O)[C@@H]1O` [TUN-8,Ac, N-Octanoyl-N’-acetyl tunicamycin], the “effect on DPAGT1 catalytic activity” value on DPAGT1 is recorded as “restored inhibitory activity”.

In the case of `CCCCCCCCC(=O)N[C@H]1[C@H](O[C@H]2O[C@H](CO)[C@@H](O)[C@H](O)[C@H]2NC(=O)CCCCCCCC)O[C@H](C[C@@H](O)[C@H]2O[C@@H](n3ccc(=O)[nH]c3=O)[C@H](O)[C@@H]2O)[C@H](O)[C@@H]1O` [TUN-9,9, Di-N-nonanoyl-tunicamycin], the MIC in the data set on B. subtilis EC1524 (B. subtilis, micro-broth dilution, mean ± SEM (n=3)) came out at 0.02 ± 0.01 µg/mL (≈ 0.0236 µM); against B. subtilis EC1524 (Bacillus subtilis, EC1524), 0.02 ± 0.01 µg/mL (≈ 0.0236 µM); in the data set on B. subtilis EC1524 (Bacillus subtilis, EC1524, read-out: Minimal Inhibitory Concentration, B. subtilis EC1524) it was 0.024 µg/mL (≈ 0.0283 µM); in the data set with Mtb H37Rv ATCC27294 (read-out: 1-week MIC in 7H9/ADC/Tw), 0.2 ± 0.02 µg/mL (≈ 0.236 µM); in the data set with Mtb H37Rv ATCC27294 (read-out: 1-week MIC in GAST/Fe) it was 0.03 ± 0.001 µg/mL (≈ 0.0354 µM); with Mtb H37Rv ATCC27294 (read-out: Minimal Inhibitory Concentration, Mtb H37RV a), 0.2 µg/mL (≈ 0.236 µM). The MIC in the data set with Mtb H37Rv ATCC27294 (read-out: Minimal Inhibitory Concentration, Mtb H37RV b) was determined as 0.03 µg/mL (≈ 0.0354 µM); with B. cereus ATCC11778 (Bacillus cereus, ATCC11778), 0.65 ± 0.23 µg/mL (≈ 0.767 µM); with B. cereus ATCC11778 (Bacillus cereus, ATCC 11778 / NRRL11778, read-out: Minimal Inhibitory Concentration, B. cereus NRRL 11778), 0.78 µg/mL (≈ 0.921 µM); against E. coli ATCC25922, 330 ± 120 µg/mL (≈ 390 µM); in the data set with P. aeruginosa ATCC27853 it was 83 ± 29 µg/mL (≈ 98 µM); against S. aureus ATCC29219, 83 ± 29 µg/mL (≈ 98 µM). In addition, the IC50 with B. subtilis EC1524 (Bacillus subtilis, EC1524) came out at 0.015 µg/mL (≈ 0.0177 µM); in the data set with B. cereus ATCC11778 (Bacillus cereus, ATCC11778), 0.072 µg/mL (≈ 0.085 µM); in the data set on E. coli ATCC25922 it was 87.1 µg/mL (≈ 103 µM); in the data set on P. aeruginosa ATCC27853, 55 µg/mL (≈ 64.9 µM); in the data set with S. aureus ATCC29219 it was 48.9 µg/mL (≈ 57.8 µM). Further, the MBC against B. subtilis EC1524 (Bacillus subtilis, EC1524) was above 0.05 µg/mL; in the data set with B. cereus ATCC11778 (Bacillus cereus, ATCC11778) it was above 25 µg/mL; in the data set on E. coli ATCC25922, 400 µg/mL (≈ 472 µM); against P. aeruginosa ATCC27853, 400 µg/mL (≈ 472 µM); with S. aureus ATCC29219, 400 µg/mL (≈ 472 µM). Also, the “Relative Therapeutic Index (RTI), B. subtilis EC1524” value with B. subtilis EC1524 (setting [2]) is 33300. Also, in the data set with HEK293 cells (setting [3]), the “LD50 values, HEK293” value is given as “N/A (N/A = not available. No or low cytotoxicity observed at highest, saturating concentration tested (400 µg mL-1))”. Moreover, the “Minimal Lethal Dose, HEK 293” value in the data set with HEK293 cells (setting [4]) was above 400 µg/mL. Also, the “LD50 values, Raji” value in the data set on Raji cells stood at 355.57 ± 194.57 µg/mL. Further, in the data set with HepG2 cells (setting [3]), the “LD50 values, HepG2” value is listed as “N/A (N/A = not available. No or low cytotoxicity observed at highest, saturating concentration tested (400 µg mL-1))”. The “Minimal Lethal Dose, HepG2” value in the data set on HepG2 cells (setting [4]) is above 400 µg/mL. Besides, the “1-week MIC in GAST/Fe” value in the data set on Mtb H37Rv ATCC27294 (Mtb H37Rv, minimal growth medium) came out at 0.03 ± 0.001 µg/mL. In addition, in the data set with Mtb H37Rv ATCC27294 (Mtb H37Rv, more potent than tunicamycin), the “potency (MIC) relative to tunicamycin” value is on record as around 5 fold. In addition, the “Relative Therapeutic Index (RTI), Mtb H37RV a” value in the data set on Mtb H37Rv ATCC27294 (minimal lethal dose / MIC, 7H9/ADC/Tw, 800 μg mL-1 used for >400) is recorded as 4000. The “Relative Therapeutic Index (RTI), Mtb H37RV b” value with Mtb H37Rv ATCC27294 (minimal lethal dose / MIC, GAST/Fe, 800 μg mL-1 used for >400) stood at 27000. The “effect on DPAGT1 catalytic activity” value at DPAGT1 is “negligible effect”. For the same compound, the “Relative Therapeutic Index (RTI), B. cereus NRRL 11778” value with B. cereus ATCC11778 (setting [2]) was found to be 1026. Moreover, the results for the “reduction of intracellular bacterial burdens” value in data set [1] (1 × MIC) and in data set [1] (10 × MIC) were 1 logs and 2 logs, respectively.

For the compound “N-Acetyl-1-[P’-(3Z,7Z,11Z,15Z,19Z,23Z,27Z,31E,35E,39E,43-undecamethyl-2,6,10,14,18,22,26,30,34,38,42-tetratetracontaundecaenyl) P,P'-dihydrogen diphosphate]-α-d-glucosamine diammonium salt [GlcNAc-PP-Und]”, the “reduction of DPAGT1 activity on adding product analogue” value at DPAGT1 (equimolar to Dol-P and UDP-GlcNAc) is reported as 3 fold.
